Literature values in PMC4287394 (Clinical cancer research : an official journal of the …, 2014).

Details: Phase I; cited from earlier work

C=CCN(/C=C1/C(=O)O[C@H](COC)[C@@]2(C)C1=C(O)C(=O)C1=C2[C@H](OC(C)=O)C[C@]2(C)C(=O)CC[C@@H]12)CC=C [PX-866]
Hyperglycaemia: minimal hyperglycaemia | Patients with rash: none

COc1ccc(Cl)c(Nc2nc3ccccc3nc2NS(=O)(=O)c2cccc(NC(=O)C(C)(C)N)c2)c1 [SAR245408]
Hyperglycaemia: minimal hyperglycaemia | Patients with rash (all grades): 26%

Nc1cc(C(F)(F)F)c(-c2cc(N3CCOCC3)nc(N3CCOCC3)n2)cn1 [BKM120]
Observed DLTs: rash, hyperglycemia and mood alterations
